This is an account of results in publication PMC6328587 (Nature Communications, 2019).

Usually DC50 stands for the midpoint of the concentration-degradation curve. One may read the Dmax as the greatest extent of degradation seen.

Where two headings read alike, the source gives them in different places.

Test [1] has as its target T1, p38α (Homo sapiens, UniProt Q16539).
T1 construct: SJFα PROTAC (13-atom linker, amide attachment) selectively degrades p38α; endogenous in cells; host or cells: MDA-MB-231
In words: PROTAC-induced p38α degradation, western blot in MDA-MB-231 cells. The test is classed as cell-based. How it is done:
(§1) MDA-MB-231 and HeLa cells were obtained from the American Type Culture Collection (ATCC), cultured in RPMI-1640 medium (1 × ) and Dulbecco’s modified Eagle’s medium (DMEM; 1 × ), respectively, containing 10% fetal bovine serum and 1% penicillin–streptomycin and grown in a humidified incubator at 37 °C and 5% CO2.
(§2) […] once with ice-cold PBS (1 × ), followed by lysis in buffer containing 25 mM Tris [pH 7.5], 0.25% sodium deoxycholate, 1% Triton X-100, supplemented with 1X protease inhibitor cocktail (Roche), and phosphatase inhibitors (10 mM NaF, 1 mM Na3VO4, and 20 mM β-glycerophosphate), unless otherwise noted. Lysates were spun at 14,000 × g for 10 min at 4 °C and supernatant was evaluated for protein content using a Pierce BCA Protein Assay (ThermoFisher Scientific). In all experiments, 25–50 μg of protein was loaded onto 10% SDS-PAGE gels or 4–20% Criterion TGX precast gradient gels (Bio-Rad), transferred to nitrocellulose membranes, and probed with the specified antibodies overnight at 4 °C in 1X TBS-Tween (Tris-buffered saline plus 0.02% Tween 20) containing 5% non-fat milk. Immunoblots were visualized using a Bio-Rad ChemiDoc imaging instrument and subsequently processed and quantified using the accompanying Bio-Rad ImageLab software. See Supplementary Figure 8 for uncropped scans of western blots shown in the main text figures.
(§3) Western blot data in Figs. 2, 6, and Supplementary Figures 2, 3 were quantified by using the band feature in Image Lab (Bio-Rad). The p38 values were normalized to the α-tubulin signal to account for differences in protein load, and PROTAC-treated normalized values were expressed as a % of the vehicle-treated (no PROTAC) value, which itself was defined as 100% p38 protein level. […] The sigmoidal fit established both the full extent of degradation, or Dmax at the bottom asymptote of the curve, as well as the DC50, which is the inflection point at which 50% of the total degradation observed was reached.
Background: In western blotting, separated proteins are transferred to a membrane and probed.

The target of test [2] is T2, p38γ (Homo sapiens, UniProt P53778).
T2 construct: endogenous in cells; host or cells: MDA-MB-231
T2 sequence (P53778 1-367): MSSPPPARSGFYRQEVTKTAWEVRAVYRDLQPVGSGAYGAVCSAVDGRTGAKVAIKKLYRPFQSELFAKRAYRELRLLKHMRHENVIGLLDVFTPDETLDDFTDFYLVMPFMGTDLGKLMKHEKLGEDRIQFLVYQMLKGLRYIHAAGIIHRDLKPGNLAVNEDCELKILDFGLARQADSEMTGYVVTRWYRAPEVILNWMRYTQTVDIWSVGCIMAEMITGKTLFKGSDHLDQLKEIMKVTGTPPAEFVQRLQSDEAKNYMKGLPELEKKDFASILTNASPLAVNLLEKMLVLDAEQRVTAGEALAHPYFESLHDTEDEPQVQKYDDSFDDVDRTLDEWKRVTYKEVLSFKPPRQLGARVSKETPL
In words: p38γ degradation, western blot in MDA-MB-231 cells. The test is classed as cell-based. To be noted: concentrations up to 2.5 µM. How it is done: as §2
(§4) Supplementary Figure 4 cont.
(§5) Supplementary Figure 4. Characterization of M APK fam ily degradation selectivity (related to Figures 1-2). (a) p38 M APK fam ily m em bers (α, β, δ, γ) were aligned using the T-Coffee multiple sequence alignm ent server. […] Note: JNK1 and JNK2 are expressed as two alternatively-spliced form s. […]

The target of test [3] is T3, p38δ (Homo sapiens, UniProt O15264).
T3 construct: endogenous in cells; host or cells: MDA-MB-231
T3 sequence (O15264 1-365): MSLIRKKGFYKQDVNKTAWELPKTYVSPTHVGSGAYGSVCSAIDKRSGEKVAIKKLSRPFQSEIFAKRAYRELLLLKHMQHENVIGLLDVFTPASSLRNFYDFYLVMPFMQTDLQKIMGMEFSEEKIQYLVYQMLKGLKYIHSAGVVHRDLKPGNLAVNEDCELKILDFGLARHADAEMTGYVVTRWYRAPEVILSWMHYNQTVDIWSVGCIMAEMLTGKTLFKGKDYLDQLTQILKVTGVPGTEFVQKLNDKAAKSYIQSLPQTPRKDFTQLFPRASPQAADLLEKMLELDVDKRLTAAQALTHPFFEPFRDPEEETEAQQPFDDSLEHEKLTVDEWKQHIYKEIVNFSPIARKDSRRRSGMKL
Description: PROTAC-induced p38δ degradation, western blot in MDA-MB-231 cells. The test is classed as cell-based. How it is done:
as §1, §2, §3

Test [4] deals with JNK1. Description: JNK1 degradation, western blot in MDA-MB-231 cells. The class given is cell-based, human. Particulars: 0.025-2.5 µM. How it is done:
as §2, §4, §5

The mark [5] stands for this setting: 0.025-5.0 µM survey, biological duplicates, ± one s.d., Supplementary Table 1.
Setting [6] is: 0.025-5.0 µM survey, ± one s.d., Supplementary Table 1, read-out: Dmax p38α (maximum percentage of degradation).
[7] abbreviates: wider dose response 1 nM-100 µM, Supplementary Figure 3.
Where [8] appears, read: 0.025-5.0 µM survey, ± one s.d., Supplementary Table 1, read-out: Dmax p38δ (maximum percentage of degradation).
Setting [9] is: wider dose response 1 nM-100 µM, Supplementary Figure 3, read-out: Dmax p38δ.

T1 sequence (Q16539 whole entry): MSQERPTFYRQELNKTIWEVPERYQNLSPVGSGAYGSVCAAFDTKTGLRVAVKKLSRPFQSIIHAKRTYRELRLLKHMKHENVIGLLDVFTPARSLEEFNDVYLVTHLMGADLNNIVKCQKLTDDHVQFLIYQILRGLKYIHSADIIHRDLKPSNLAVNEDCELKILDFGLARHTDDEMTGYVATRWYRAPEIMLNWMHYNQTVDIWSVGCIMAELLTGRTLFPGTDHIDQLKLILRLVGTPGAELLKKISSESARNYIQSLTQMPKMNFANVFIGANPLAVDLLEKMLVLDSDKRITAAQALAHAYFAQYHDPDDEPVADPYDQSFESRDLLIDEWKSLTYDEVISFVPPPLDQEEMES

On to `COc1cc2c(Oc3ccc(NC(=O)C4(C(=O)Nc5ccc(F)cc5)CC4)cc3F)ccnc2cc1OCCCCOCCCCOCC(=O)N[C@H](C(=O)N1C[C@H](O)C[C@H]1C(=O)NCc1ccc(-c2scnc2C)cc1)C(C)(C)C` [SJFα], for which the “p38α downregulation after pre-treatment with 1 µM epoxomicin or 1 µM MLN4924” value in test [1] (250 nM PROTAC, 6 h) is listed as “completely rescued”. Also, the DC50 came out at 9.5 ± 1 nM in test [1] (setting [5]), 7.16 ± 1.03 nM in test [1] (setting [7]) and 1160 ± 2470 nM in test [3] (setting [5]). For the same compound, the Dmax in test [1] (setting [6]) was determined as 99.6 ± 1.1%; in test [1] (wider dose response 1 nM-100 µM, Supplementary Figure 3, read-out: Dmax p38α) it was 97.4%; in test [3] (setting [8]), 25.1 ± 22.7%; in test [3] (setting [9]), 18%. The “hook effect in p38α degradation” value in test [1] (up to 100 µM) is “no hook effect”. Also, the p38γ degradation result in test [2] is reported as “does not degrade”. Further, in test [4], the JNK1 degradation result was “neither PROTAC degrades”.
On to `COc1cc2c(Oc3ccc(NC(=O)C4(C(=O)Nc5ccc(F)cc5)CC4)cc3F)ccnc2cc1OCCOCCOCCOc1cc(-c2scnc2C)ccc1CNC(=O)[C@@H]1C[C@@H](O)CN1C(=O)[C@H](C(C)C)N1Cc2ccccc2C1=O` [SJFδ], for which the “p38α degradation (in words)” value in test [1] was “does not degrade”. For the same compound, the DC50 in test [1] (setting [5]) is 45.9 ± 81.3 nM; in test [3] (setting [5]) it was 79.2 ± 28 nM; in test [3] (setting [7]), 46.2 ± 9.85 nM. Moreover, the figures for the Dmax in test [1] (setting [6]), in test [3] (setting [8]) and in test [3] (setting [9]) were 34.5 ± 10.1%, 98.4 ± 6.6% and 99.4 ± 3.31%, respectively. In addition, in test [2], the p38γ degradation result is “does not degrade”. Further, the “p38δ downregulation after pre-treatment with 1 µM epoxomicin or 1 µM MLN4924” value in test [3] (250 nM PROTAC, 6 h) is given as “completely rescued”. The “hook effect in p38δ degradation” value in test [3] (up to 100 µM) is reported as “no hook effect”. Moreover, in test [4], the JNK1 degradation result was “neither PROTAC degrades”.
